US20060069132A1, “Azolecarboxamide herbicides” (priority 2004, published 2006)

What was measured:
[1] = system: blackgrass; test: Test B postemergence herbicide test; assay type: in vivo, Alopecurus myosuroides; settings: scale 0 (no effect) to 100 (complete control); for Blackgrass plant response rating: postemergence, visual rating
Method in brief: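 Postemergence plants were sprayed with formulated test chemicals at 2 to 18 cm height (1- to 4-leaf stage); paddy species were grown to the 2-leaf stage. After 13 to 15 days in a greenhouse, injury was rated visually against untreated controls on a 0–100 scale (0 = no effect, 100 = complete control).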

[2] = system: corn; test: Test B pre-/postemergence herbicide test; assay type: in vivo, Zea mays; settings: for Corn plant response rating: postemergence, visual rating
Method in brief: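 Seeds were planted and treated preemergence with compounds formulated in a non-phytotoxic solvent mixture containing surfactant, while plants at the 1- to 4-leaf stage (2 to 18 cm) received postemergence sprays. Flooded paddy plants were grown to the 2-leaf stage. After 13 to 15 days in a greenhouse, injury was visually rated 0–100 against untreated controls.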

[3] = system: common ragweed; test: Test C pre-/postemergence herbicide test; assay type: in vivo, Ambrosia elatior; design: key to Plant response rating, Ragweed: 0 = no effect, 100 = complete control; settings: for Ragweed plant response rating: 500 g ai/ha
Method in brief: (§1)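 Pre/post spray; non-phytotoxic solvent + surfactant. Post-timing 1–4 leaves, 2–18 cm. Read-out: visual % control vs untreated, day 12–14, greenhouse.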

[4] = system: woolly cupgrass; test: Test C pre-/postemergence herbicide test; assay type: in vivo, Eriochloa villosa; settings: for Cupgrass, Woolly plant response rating: 500 g ai/ha
Method in brief: as §1

[5] = system: redroot pigweed; test: Test A pre-/postemergence herbicide test; assay type: in vivo, Amaranthus retroflexus
Method in brief: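 Greenhouse injury scoring (0–100, complete control = 100) at approximately ten days follows simultaneous pre- and postemergence application. Soil received a directed spray after seeding; seedlings of 2–10 cm at the one- to two-leaf stage were sprayed to runoff.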

[6] = system: soybean; test: Test C pre-/postemergence herbicide test; assay type: in vivo, Glycine max; settings: for Soybean plant response rating: 500 g ai/ha
Method in brief: as §1

[7] = system: rice; test: Test C flooded paddy test; assay type: in vivo, Oryza sativa; settings: for Plant response rating, Rice: 500 g ai/ha, visual rating after 12 to 14 days
Method in brief: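 Plants were grown to the 1- to 4-leaf stage (2–18 cm) and then treated postemergence, or grown to the 2-leaf stage for the flooded paddy test. They were held in a greenhouse for 12 to 14 days and then scored by eye against controls, where 0 is no effect and 100 is complete control.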

[8] = system: ducksalad; test: Test C flooded paddy test; assay type: in vivo, Heteranthera limosa; settings: for Plant response rating, Ducksalad: 500 g ai/ha, visual rating after 12 to 14 days
[9] = 500 g ai/ha, visual rating 0-100, 0 no effect, 100 complete control, preemergence
[10] = 125 g ai/ha, scale 0 (no effect) to 100 (complete control)
[11] = preemergence, 125 g ai/ha, 0 to 100 scale, 0 is no effect, 100 is complete control
[12] = 125 g ai/ha, scale 0 (no effect) to 100 (complete control), visual, 12 to 14 days, preemergence
[13] = Postemergence, 250 g ai/ha, scale 0 to 100, 0 no effect, 100 complete control
[14] = Preemergence, scale 0 to 100, 0 no effect, 100 complete control
[15] = postemergence, 125 g ai/ha, scale 0 to 100
[16] = postemergence, 62 g ai/ha, scale 0 to 100
[17] = Postemergence, 500 g ai/ha, 0 to 100 scale, 0 no effect, 100 complete control
[18] = Postemergence, 2000 g ai/ha, 0 to 100 scale, 0 no effect, 100 complete control
[19] = Preemergence, 2000 g ai/ha, visual rating, 0 to 100 scale (0 no effect, 100 complete control)
[20] = 62 g ai/ha, scale 0 to 100 (0 no effect, 100 complete control)
[21] = 125 g ai/ha, scale 0 to 100 (0 no effect, 100 complete control)
[22] = 250 g ai/ha, scale of 0 to 100, 0 is no effect, 100 is complete control
[23] = scale 0 to 100 (0 no effect, 100 complete control)
[24] = 125 g ai/ha, scale of 0 to 100, 0 is no effect, 100 is complete control

| SMILES | Blackgrass plant response rating ([1]; 125 g ai/ha) | Plant response rating, Corn [2, 9] | Corn plant response rating [2, 10] | Plant response rating, Corn [2, 11] | Ragweed plant response rating ([3]; Postemergence, scale 0 to 100) | Plant response rating, Ragweed [3, 13] | Plant response rating, Ragweed [3, 15] | Plant response rating, Ragweed [3, 16] | Cupgrass, Woolly plant response rating ([4]; Postemergence, scale 0 to 100) | Plant response rating, Cupgrass, Woolly [4, 13] | Plant response rating, Cupgrass, Woolly [4, 15] | Plant response rating, Cupgrass, Woolly [4, 16] | Pigweed plant response rating [5, 17] | Plant response rating, Pigweed [5, 18] | Pigweed plant response rating [5, 19] | Soybean plant response rating ([6]; Postemergence, scale 0 to 100) | Plant response rating, Soybean [6, 13] | Plant response rating, Soybean [6, 15] | Plant response rating, Soybean [6, 16] | Rice plant response rating [7, 20] | also measured |
| --- | --- | --- | --- | --- | --- | --- | --- | --- | --- | --- | --- | --- | --- | --- | --- | --- | --- | --- | --- | --- | --- |
| CCn1nc(C(C)(C)C)cc1C(=O)Nc1cccc(C(=O)NC2CC2)n1 [Compound 146] | 10 | 0 | 10 | 0 | 0 | 0 | 0 | 0 | 30 | 30 | 10 | 10 | 85 | 100 | 95 | 80 | 30 | 20 | 20 | 0 | Blackgrass plant response rating ([1]; 500 g ai/ha): 20; Corn plant response rating ([2]; 500 g ai/ha, scale 0 (no effect) to 100 (complete control)): 30; Plant response rating (0 = no effect, 100 = complete control), Ragweed ([3]; 62 g ai/ha, preemergence): 0; Plant response rating, Ragweed [3, 12]: 0; Ragweed plant response rating [3, 14]: 70; Plant response rating (0 = no effect, 100 = complete control), Cupgrass, Woolly ([4]; 62 g ai/ha, preemergence): 0; Plant response rating, Cupgrass, Woolly [4, 12]: 0; Plant response rating, Cupgrass, Woolly ([4]; 250 g ai/ha, scale 0 to 100 (0 no effect, 100 complete control), visual, 12 to 14 days, preemergence): 0; Cupgrass, Woolly plant response rating [4, 14]: 0; Pigweed plant response rating ([5]; preemergence, 500 g ai/ha, visual injury, 0 to 100 scale (0 no effect, 100 complete control)): 85; Plant response rating (0 = no effect, 100 = complete control), Soybean ([6]; 62 g ai/ha, preemergence): 0; Plant response rating, Soybean [6, 12]: 0; Soybean plant response rating [6, 14]: 0; Rice plant response rating [7, 21]: 0; Rice plant response rating [7, 22]: 0; Plant response rating, Rice [7, 23]: 20; Ducksalad plant response rating [8, 20]: 0; Ducksalad plant response rating [8, 21]: 0; Ducksalad plant response rating [8, 22]: 20; Plant response rating, Ducksalad [8, 23]: 20 |
| CC(=NO)c1cccc(NC(=O)c2cc(C(C)(C)C)nn2CC(F)(F)F)c1 [Compound 112] | 20 | 0 | 40 | 0 | 70 | 70 | 0 | 0 | 70 | 60 | 30 | 0 | 40 | 60 | 90 | 60 | 50 | 0 | 0 | 0 | Plant response rating, Blackgrass ([1]; Postemergence, 500 g ai/ha, visual rating after 13 to 15 days): 20; Plant response rating, Corn ([2]; Postemergence, 500 g ai/ha, visual rating after 13 to 15 days, scale 0 (no effect) to 100 (complete control)): 40; Pigweed plant response rating ([5]; Preemergence, 500 g ai/ha, visual rating, 0 to 100 scale (0 no effect, 100 complete control)): 65; Rice plant response rating [7, 24]: 0; Rice plant response rating [7, 22]: 10; Plant response rating, Rice [7, 23]: 30; Ducksalad plant response rating [8, 20]: 0; Ducksalad plant response rating [8, 24]: 0; Ducksalad plant response rating [8, 22]: 0; Plant response rating, Ducksalad [8, 23]: 100 |
